Test results reported in ChEMBL document CHEMBL1201862, “PubChem BioAssay data set” (2004).
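Assay format: 96-well plates, 48-hour exposure. Abbreviation: GI50, concentration required for 50% inhibition of growth.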 Active and inactive are the calls of the source. Cut-off read from the data, not from the text of the source: active = GI50 up to about 1.1 µM and inactive = higher.

Legend:
Assay in all cases: NCI-60 cell line screen, 48 h
786-0 = tested on: 786-0
ACHN = tested on: ACHN
COLO 205 = tested on: COLO 205
HCC 2998 = tested on: HCC 2998
Hs-578T = tested on: Hs-578T
IGROV-1 = tested on: IGROV-1
K562 = tested on: K562
MDA-MB-231 = tested on: MDA-MB-231
MOLT-4 = tested on: MOLT-4
NCI-H226 = tested on: NCI-H226
NCI/ADR-RES = tested on: NCI/ADR-RES
OVCAR-5 = tested on: OVCAR-5
SF-268 = tested on: SF-268
SK-MEL-28 = tested on: SK-MEL-28
SN12C = tested on: SN12C
SNB-75 = tested on: SNB-75
SW-620 = tested on: SW-620
UO-31 = tested on: UO-31
A549 = tested on: A549
M14 = tested on: M14

SMILES	GI50 (786-0)	GI50 (ACHN)	GI50 (COLO 205)	GI50 (HCC 2998)	GI50 (Hs-578T)	GI50 (IGROV-1)	GI50 (K562)	GI50 (MDA-MB-231)	GI50 (MOLT-4)	GI50 (NCI-H226)	GI50 (NCI/ADR-RES)	GI50 (OVCAR-5)	GI50 (SF-268)	GI50 (SK-MEL-28)	GI50 (SN12C)	GI50 (SNB-75)	GI50 (SW-620)	GI50 (UO-31)	GI50 (A549)	GI50 (M14)
NC(=O)NC(=O)c1cccc(NC(=O)CCl)c1	1.06 µM (active)	2.56 µM (inactive)	0.394 µM (active)	0.764 µM (active)	3.9 µM (inactive)	2.79 µM (inactive)	0.714 µM (active)	2.79 µM (inactive)	1.11 µM (active)	2.19 µM (inactive)	1.65 µM (inactive)	1.65 µM (inactive)	1.91 µM (inactive)	7 µM (inactive)	1.43 µM (inactive)	1.98 µM (inactive)	0.621 µM (active)	0.168 µM (active)		
CCOc1ccc(N/C(=C(/C(Cl)=C(/Cl)NC(C)(C)C)[N+](=O)[O-])n2nnc3ccccc32)cc1	18 µM (inactive)	31.8 µM (inactive)	21.1 µM (inactive)	> 100 µM (inactive)	11 µM (inactive)		> 100 µM (inactive)	17.9 µM (inactive)	> 100 µM (inactive)	> 100 µM (inactive)	32.4 µM (inactive)	31.6 µM (inactive)	16.7 µM (inactive)	16.4 µM (inactive)	34 µM (inactive)	24.2 µM (inactive)	19.2 µM (inactive)	29.9 µM (inactive)	70.3 µM (inactive)	> 100 µM (inactive)
CC(SC(=S)N1CCOCC1)C(=O)Nc1nnc(-c2ccccc2)o1 (stereo not drawn)	83.2 µM (inactive)	97.7 µM (inactive)	> 100 µM (inactive)		> 100 µM (inactive)	99.1 µM (inactive)	55.1 µM (inactive)	> 100 µM (inactive)	36.8 µM (inactive)	> 100 µM (inactive)	26.1 µM (inactive)	> 100 µM (inactive)		> 100 µM (inactive)	93.3 µM (inactive)	> 100 µM (inactive)	51.6 µM (inactive)	53.2 µM (inactive)	70 µM (inactive)	> 100 µM (inactive)
CC1=C(C(=O)OC23CC4CC(CC(C4)C2)C3)C(c2ccccc2OC(F)F)C(C(=O)OC23CC4CC(CC(C4)C2)C3)=C(C)N1 (stereo not drawn)	> 100 µM (inactive)		> 100 µM (inactive)	> 100 µM (inactive)	68.2 µM (inactive)	> 100 µM (inactive)		> 100 µM (inactive)	63.7 µM (inactive)	> 100 µM (inactive)	> 100 µM (inactive)	> 100 µM (inactive)	> 100 µM (inactive)	> 100 µM (inactive)	> 100 µM (inactive)	43.7 µM (inactive)	> 100 µM (inactive)	> 100 µM (inactive)	> 100 µM (inactive)	> 100 µM (inactive)
COc1nc(=O)n(C2CC(F)C(CO)O2)cc1C (stereo not drawn)	> 100 µM (inactive)	> 100 µM (inactive)	> 100 µM (inactive)	> 100 µM (inactive)	> 100 µM (inactive)	> 100 µM (inactive)	> 100 µM (inactive)	> 100 µM (inactive)	> 100 µM (inactive)	> 100 µM (inactive)	> 100 µM (inactive)		> 100 µM (inactive)	> 100 µM (inactive)	> 100 µM (inactive)		> 100 µM (inactive)	> 100 µM (inactive)	> 100 µM (inactive)	> 100 µM (inactive)
O=c1oc2ccc(Cl)cc2cc1C1=CSC2=NCCN12	18.4 µM (inactive)	37.7 µM (inactive)	20.9 µM (inactive)	14 µM (inactive)	31.7 µM (inactive)	18.5 µM (inactive)	18.2 µM (inactive)	20.4 µM (inactive)	17.9 µM (inactive)		44.4 µM (inactive)	50.5 µM (inactive)	17.8 µM (inactive)	27.9 µM (inactive)	17.4 µM (inactive)	44.5 µM (inactive)	24.6 µM (inactive)	20.7 µM (inactive)	40.7 µM (inactive)	31.6 µM (inactive)
COc1ccc(/C=C2\N=C(N3CCCC(CO)C3)NC2=O)cc1 (stereo not drawn)	> 100 µM (inactive)	> 100 µM (inactive)	> 100 µM (inactive)	> 100 µM (inactive)	> 100 µM (inactive)	> 100 µM (inactive)		> 100 µM (inactive)	> 100 µM (inactive)	> 100 µM (inactive)	> 100 µM (inactive)	> 100 µM (inactive)	> 100 µM (inactive)	> 100 µM (inactive)	> 100 µM (inactive)	> 100 µM (inactive)	> 100 µM (inactive)	> 100 µM (inactive)	> 100 µM (inactive)	> 100 µM (inactive)
Oc1cccc(-c2cn3cc(Cl)ccc3n2)c1	66.2 µM (inactive)	43.9 µM (inactive)	33.6 µM (inactive)	38.4 µM (inactive)	97.1 µM (inactive)	16.7 µM (inactive)	42.1 µM (inactive)	> 100 µM (inactive)	32.7 µM (inactive)	91.4 µM (inactive)	34.5 µM (inactive)	72.6 µM (inactive)	55.1 µM (inactive)	59.8 µM (inactive)	57.1 µM (inactive)		> 100 µM (inactive)	36.7 µM (inactive)	51.5 µM (inactive)	49.7 µM (inactive)
